According to patent US20190175467A1, “COMPOSITION FOR THE TREATMENT OF ACNE” (ROTTAPHARM LTD., priority 2015, published 2019):
Converted amounts (≈) assume the structure as drawn.

How the values were obtained:
[1] = test system: Propionibacterium acnes ATCC 11827; test: Determination of MIC and MBC, P. acnes; type: cell-based; settings: Cutibacterium acnes, ATCC11827; Propionibacterium acnes ATCC 11827, 2.6×10^4 cells per milliliter
Description: (§1) A series of test tubes was prepared containing the culture broth inoculated with the test micro-organism and the substance to be tested was introduced at decreasing scalar concentrations. […] The test tubes in which the microbial population developed were then determined by observing visually the turbidity that is indicative of growth. Test tubes in which the substance is present at a sufficient concentration to inhibit growth remain clear. When the nature itself of the sample prevents visual reading or if it is wished to determine whether the lack of development is due to a microbiostatic or microbicidal action, transfers are made to appropriate agar media for confirmation. The concentration of sample at which growth of the micro-organisms is inhibited is considered to be the Minimum Inhibitory Concentration (MIC), while that at which viable micro-organisms are no longer present is considered to be the Minimum Bactericidal Concentration (MBC) In a further set of experiments we tested the antibacterial activity of Salix alba extract and 1,2-decanediol, a substance which is known to show antibacterial activity against P. acnes, alone and in combination according to the above-described method. The microbial strain used was Propionibacterium acnes ATCC 11827 titrated at a concentration of 2.6×10^4 cells per milliliter of medium.

TNFalpha = test: Anti-inflammatory activity: LPS-induced TNFalpha release in HaCat keratinocytes (ELISA); type: cell-based, human
Description: (§2) The aim of the test was the evaluation of the anti-inflammatory activity of Salix alba extract, 1,2-decanediol and their combination by means of the study of TNFalpha, IL1alpha, IL8 synthesis modulation in a biological experimental model (keratinocyte cell culture HaCat).
(§3) In order to stimulate the inflammatory process in our experimental model, lipopolysaccharides (LPS) were selected. LPS are pro-inflammatory mediators secreted by bacteria, e.g. by P. acnes.
(§4) 1,2-decanediol (SMAL) was emulsified with corn oil (37° C.) in mechanical agitation and addition of culture medium, starting from the following ratio: 0.05 g emulsified with 100 μl corn oil in a final volume of culture medium of 1 ml (37° C.).
(§5) Salix alba extract (WMAL) was direct diluted in culture medium, starting from the following ratio: 0.05 g in 1 ml (37° C.); subsequent dilutions in culture medium (37° C.). […]
(§6) At the end of the monitored experimental period, cytokine levels were measured by means of ELISA assay. […]
(§7) Commercial ELISA kits were used for the determination of cytokine quantity.
(§8) The quantitative determination uses a calibration curve made-up of standard known and growing concentrations of standard cytokine. […]
(§9) In order to compare the two different work sessions, the obtained data were normalized in a 0-100% scale, in which CTR− is 0 and CTR+ is 100%; all the other data were calculated in this interval.

IL8 = test: Anti-inflammatory activity: LPS-induced IL8 release in HaCat keratinocytes (ELISA); type: cell-based, human
Description: as §2, §3, §4, §5, §6, §7, §8, §9

IL-6 = test: Anti-inflammatory activity: LPS-induced IL-6 release in HaCat keratinocytes (ELISA), as headed in Table 3; type: cell-based, human; settings: HaCat + LPS 10 ng/ml; CTR− is 0, CTR+ is 100%; WMAL 0.4%, SMAL 0.02%
IL1alpha = test: Anti-inflammatory activity: LPS-induced IL1alpha release in HaCat keratinocytes (ELISA); type: cell-based, human
Description: as §2, §3, §4, §5, §6, §7, §8, §9

[2] = test system: Propionibacterium acnes ATCC 11827; settings: common knowledge; cited from earlier work
[3] = test system: Staphylococcus epidermidis ATCC 12228; test: Determination of MIC and MBC, Staphylococcus epidermidis; type: cell-based; settings: for MBC: ATCC12228; for MIC: ATCC12228, read-out: MIC
Description: as §1, with “The” for “In a further set of experiments we tested the”, “these substances against Staphylococcus aureus acnes ATCC 25923” for “Salix alba extract”, “Staphylococcus epidermidis ATCC 12228 was tested” for “1,2-decanediol, a substance which is known to show antibacterial activity against P. acnes, alone and in combination”, “method.” for “method. The microbial strain used was Propionibacterium acnes ATCC 11827 titrated at a concentration of 2.6×10^4 cells per milliliter of medium.”

[4] = test system: Staphylococcus aureus ATCC 25923; test: Determination of MIC and MBC, Staphylococcus aureus; type: cell-based; settings: for MBC: ATCC25923; for MIC: ATCC25923, read-out: MIC
Description: as §1, with “The” for “In a further set of experiments we tested the”, “these substances against Staphylococcus aureus acnes ATCC 25923” for “Salix alba extract”, “Staphylococcus epidermidis ATCC 12228 was tested” for “1,2-decanediol, a substance which is known to show antibacterial activity against P. acnes, alone and in combination”, “method.” for “method. The microbial strain used was Propionibacterium acnes ATCC 11827 titrated at a concentration of 2.6×10^4 cells per milliliter of medium.”

[5] = HaCat + LPS 10 ng/ml, CTR− is 0, CTR+ is 100%, WMAL 0.4%, SMAL 0.02%

MIC [1] [µg/mL] | MIC [3] [µg/mL] | MIC [4] [µg/mL] | Compound | MBC [1] [µg/mL] | antibacterial activity against P. acnes, as known (in words) [2] | MBC [3] [µg/mL] | MBC [4] [µg/mL] | also measured
620 | – | – | CCCCCCCCC(O)CO (stereo not shown) [1,2-decanediol] | 1250 | effective | – | – | effect on LPS-induced release of TNFalpha (in words) (TNFalpha; HaCat + LPS): significantly reduce; TNF-ALPHA, normalized data 0-100% (TNFalpha; [5]): 18.45%; effect on LPS-induced release of IL8 (in words) (IL8; HaCat + LPS): significantly reduce; IL-8, normalized data 0-100% (IL8; [5]): 34.56%; IL-6, normalized data 0-100% (IL-6): 61.69%; effect on LPS-induced release of IL1alpha (in words) (IL1alpha): significantly reduce
– | 500 (≈ 2500 µM) | – | CCCCCCCCCCCC(=O)O [Lauric Acid, Lauric acid] | – | – | 1000 (≈ 4990 µM) | – | –
– | 250 (≈ 1100 µM) | 1000 (≈ 4380 µM) | Oc1ccc(C=Cc2cc(O)cc(O)c2)cc1 [Resveratrol] | – | – | > 100000 | > 100000 | –
480 | – | – | O=C(OOC(=O)c1ccccc1)c1ccccc1 [benzoyl peroxide] | 480 | strong antibacterial agent | – | – | –
– | 6.25 (≈ 24.4 µM) | 6.25 (≈ 24.4 µM) | C=C[C@@](C)(/C=C/c1ccc(O)cc1)CCC=C(C)C [Bakuchiol] | – | – | 100 (≈ 390 µM) | 100 (≈ 390 µM) | –
